From patent US9018212B2, “Pyridazine carboxamides as CCR2 receptor antagonists” (Boehringer Ingelheim International GmbH, priority 2010, dated 2015) come the findings set out here.

Structures are written as SMILES. pKi: −log10 of the molar value.

The assay concerns the target T1, CCR2 (Homo sapiens, UniProt P41597).
T1 construct: Membranes were prepared from THP-1 cells; endogenous in cells; host or cells: THP-1 (human acute monocytic leukaemia cells), membrane preparation
T1 sequence (P41597 1-360 isoform P41597-2): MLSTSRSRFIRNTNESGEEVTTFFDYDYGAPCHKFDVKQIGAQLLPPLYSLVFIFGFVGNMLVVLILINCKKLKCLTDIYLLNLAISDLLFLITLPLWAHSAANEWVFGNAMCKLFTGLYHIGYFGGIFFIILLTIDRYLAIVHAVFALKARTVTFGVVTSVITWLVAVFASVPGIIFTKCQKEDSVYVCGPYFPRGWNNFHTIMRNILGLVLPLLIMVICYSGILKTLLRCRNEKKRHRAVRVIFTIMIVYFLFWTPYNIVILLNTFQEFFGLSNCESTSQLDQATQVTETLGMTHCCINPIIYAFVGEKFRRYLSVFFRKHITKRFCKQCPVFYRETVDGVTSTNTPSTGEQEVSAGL
The experiment in a line: CCR2 receptor membrane binding assay ([125I]MCP-1, THP-1 membranes, SPA beads). Particulars: THP-1 cell membranes; [125I]MCP-1 displacement; bound radioactivity after 8 h; read-out: hKi. On the procedure: The above exemplary substances have been tested for binding to CCR2 using a binding assay as outlined herein below:
THP-1 cells (human acute monocytic leukaemia cells) were cultured under standardized conditions at 37° C. and 5% CO2 in a humidified incubator. THP-1 cells were cultivated in RPMI 1640 medium (Gibco 21875) containing 1% MEM-NEAA (Gibso 11140) 2 mM L-glutamine, 1.5 g/L sodium bicarbonate, 4.5 g/L glucose, 10 mM HEPES and 1.0 mM sodium pyruvate, 90%; 10% fetal calf serum (FCS Gibco 10500-064).
Membranes were prepared from THP-1 cells. THP-1 cells were centrifuged at 300×g at 4° C. for 10 min. The cell pellet was resuspended in Phosphate Buffer Saline (PBS, including 10 μM Pefabloc and a protease inhibitor mix ‘complete’, Boehringer Mannheim (1 tablet/50 ml)), to a concentration of […]. The membrane preparation was performed by disrupting the cells by nitrogen […] (at 50 bar, for 1 h) in a “Nitrogen Bombe” (Parr Instrument). Cell debris was removed by centrifugation (800×g at 4° C., 1 min). The supernatant was centrifuged at 80000×g, 4° C. for 30 min to sediment the cell membranes. Usually 50 mg of protein (Bradford assay) were yielded from 1×10E9 cells. The membranes were resuspended in 25 mM HEPES, 25 mM MgCl2, 1 mM CaCl2, 10% Glycerine for storage in aliquots at −80° C. in 25 mM HEPES, 25 mM MgCl2, 1 mM CaCl2, 10% Glycerine and stored at −80° C.
Perkin Elmer NEX 332 Jod 125 MCP-1, Stock: 2200 Ci/mmol solved in 2000 μl assay buffer, stored at −20° C. THP-1 membrane were adjusted with 25 mM HEPES, pH 7.2; 5 mM MgCl2; 0.5 mM CaCl2; 0.2% BSA assay buffer to a concentration of 2.5 μg/15 μl. Amersham Biosciences PVT-WGA Beads (RPNQ0001) were adjusted with assay buffer to a concentration of 0.24 mg/30 μl. For preparation of the membrane-bead-suspension membranes and beads were incubated for 30 min at RT under rotation (60 rpm) with a ratio of 1:2. Test compounds dissolved in 100% DMSO to a concentration of 10 mM and are further diluted with 100% DMSO to 1 mM. All additional compound dilutions were obtained with assay buffer, final 1% DMSO. Compounds, membrane-bead-suspension and [125I]MCP-1 (ca. 25000 cpm/10 μl) were incubated. Bound radioactivity was determined by scintillation counter after 8 h. Determination of affinity of test compounds (dissociation constant hKi) is calculated by iterative fitting of experimental data using the “easy sys” program, which is based on law of mass action (Schittkowski K. (1994), Numerische Mathematik, Vol. 68, 129-142).

As to `Cc1c(N2CCc3ccc(C(F)(F)F)cc3C2)cnnc1C(=O)N1CCC(NC2CCOCC2F)CC1` (centres unmarked) [Example 20], the pKi is 7.27.
The value for `CO[C@@H]1COCC[C@@H]1NC1CCN(C(=O)c2nncc(N3CCc4ccc(C(F)(F)F)cc4C3)c2C)CC1` [Example 11] was 7.80; that for `CO[C@@H]1COCC[C@@H]1NC1CCN(C(=O)c2nncc(NC[C@H]3CCC[C@@H](c4ccc(C(F)(F)F)cc4)O3)c2C)CC1` [Example 16] was 8.52.
Consider `Cc1c(NC[C@H]2CCC[C@@H](c3ccccc3)C2)cnnc1C(=O)N1CCC(NC2CCOCC2F)CC1` (some centres unmarked) [Example 18], for which the pKi is 8.15.
As to `COC1COCCC1NC1CCN(C(=O)c2nnc(C)c(NCc3ccc(C(C)(C)C)cc3)c2C)CC1` (centres unmarked) [Example 23], the pKi is 6.89.
Then `CO[C@H]1COCC[C@H]1NC1CCN(C(=O)c2nncc(N3CCc4ccc(C(F)(F)F)cc4C3)c2C)CC1` [Example 17], with 7.14; and `COc1nnc(C(=O)N2CCC(N[C@H]3CCOC[C@H]3OC)CC2)c(C)c1NC[C@H]1CCC[C@@H](c2ccc(OC(F)(F)F)cc2)O1` [Example 5], with 8.52.
Take `Cc1c(Nc2ccc(Cl)c(Cl)c2)cnnc1C(=O)N1CCC(NC2CCOCC2F)CC1` (centres unmarked) [Example 21]: the pKi was 7.39.
For the compound `CO[C@@H]1COCC[C@@H]1NC1CCN(C(=O)c2nncc(NC[C@H]3CCC[C@@H](c4ccccc4)C3)c2C)CC1` [Example 10], the pKi was 8.52.
As for `COc1nnc(C(=O)N2CCC(N[C@H]3CCOC[C@H]3OC)CC2)c(C)c1NC[C@H]1CCC[C@@H](c2ccccc2)C1` [Example 3], the pKi is 9.00.
Then `COc1nnc(C(=O)N2CCC(N[C@H]3CCOC[C@H]3OC)CC2)c(C)c1NC[C@H]1CCC[C@@H](c2ccc(C(F)(F)F)cc2)O1` [Example 7], with 9.00; and `COc1nnc(C(=O)N2CCC(N[C@@H]3CCOC[C@@H]3OC)CC2)c(C)c1NC[C@H]1CCC[C@@H](c2ccc(C(F)(F)F)cc2)O1` [Example 8], with 8.70.
Then `Cc1c(NC[C@H]2CCC[C@@H](c3ccc(OC(F)(F)F)cc3)O2)cnnc1C(=O)N1CCC(NC2CCOCC2F)CC1` (some centres unmarked) [Example 14], with 8.30.
For the compound `COc1nnc(C(=O)N2CCC(N3CCC(N(C)S(C)(=O)=O)CC3)CC2)c(C)c1NCc1ccc(C(C)(C)C)cc1` [Example 1], the pKi was 7.22.
Then `COC1COCCC1NC1CCN(C(=O)c2nncc(NCc3ccc(C(C)(C)C)cc3)c2C)CC1` (centres unmarked) [Example 9], with 7.57; and `COc1nnc(C(=O)N2CCC(N[C@H]3CCOC[C@H]3OC)CC2)c(C)c1N1CCc2ccc(C(F)(F)F)cc2C1` [Example 4], with 8.00.
`CO[C@@H]1COCC[C@@H]1NC1CCN(C(=O)c2nncc(Nc3ccc(Cl)c(Cl)c3)c2C)CC1` [Example 22]: the pKi was 8.40.
As for `CO[C@H]1COCC[C@H]1NC1CCN(C(=O)c2nncc(NC[C@H]3CCC[C@@H](c4ccc(C(F)(F)F)cc4)O3)c2C)CC1` [Example 15], the pKi was 8.22.
The value for `COc1nnc(C(=O)N2CCC(NC3CCOCC3OC)CC2)c(C)c1NCc1ccc(C(C)(C)C)cc1` (centres unmarked) [Example 2] was 7.40.
`COc1nnc(C(=O)N2CCC(N[C@@H]3CCOC[C@@H]3OC)CC2)c(C)c1NC[C@H]1CCC[C@@H](c2ccc(C)cc2)O1` [Example 6]: the pKi is 8.40.
Then `CO[C@@H]1COCC[C@@H]1NC1CCN(C(=O)c2nncc(NC[C@H]3CCC[C@@H](c4ccc(OC(F)(F)F)cc4)O3)c2C)CC1` [Example 12], with 9.15; and `Cc1c(NC[C@H]2CCC[C@@H](c3ccc(C(F)(F)F)cc3)O2)cnnc1C(=O)N1CCC(NC2CCOCC2F)CC1` (some centres unmarked) [Example 19], with 8.05.
`Cc1ccc([C@@H]2CCC[C@H](CNc3cnnc(C(=O)N4CCC(NC5CCOCC5F)CC4)c3C)O2)cc1` (some centres unmarked) [Example 13]: the pKi was 7.46.
